Reference: the supplement of paper PMC10331698
± gives the standard deviation of the averaged measurements.

What was measured:
Assay in all cases: level (log10 ratio to DMSO vehicle control); higher = higher biomarker level / cell amount than vehicle control
[1] = compound: OCC(F)(F)C(F)(F)C(F)(F)C(F)(F)C(F)(F)C(F)(F)C(F)(F)C(F)(F)C(F)(F)C(F)(F)C(F)(F)F [11:1 Fluorotelomer alcohol]; settings: in DMSO
Procedure: (§1)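 BioMAP Diversity Plus panel of 12 human primary cell co-culture systems (3C, 4H, LPS, SAg, BT, BF4T, BE3C, CASM3C, HDF3CGF, KF3CT, MyoF, Mphg). Compounds were added 1 h before stimulation and left for 24 h (MyoF 48 h; BT 72 h for soluble read-outs or 6 d for IgG). Biomarkers were read by ELISA, cytotoxicity by SRB, PBMC viability and proliferation by Alamar Blue. Each well value was divided by the mean of 8 DMSO control wells on the same plate and log10 transformed; duplicate blinded samples were tested at 4 concentrations.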

[2] = compound: OCC(F)(F)C(F)(F)C(F)(F)C(F)(F)C(F)(F)C(F)(F)C(F)(F)C(F)(F)CO [1H,1H,10H,10H-Perfluorodecane-1,10-diol]; settings: in DMSO
Procedure: as §1

[3] = compound: FC(F)(I)C(F)(F)C(F)(F)C(F)(F)C(F)(F)C(F)(F)I [1,6-Diiodoperfluorohexane]; settings: 6700 nM; in DMSO
Procedure: as §1

[4] = compound: O=S(=O)(OCC(F)(F)F)C(F)(F)C(F)(F)C(F)(F)C(F)(F)F [2,2,2-Trifluoroethyl perfluorobutanesulfonate]; settings: in DMSO
Procedure: as §1

[5] = compound: OC(C(F)(F)F)(C(F)(F)F)C(O)(C(F)(F)F)C(F)(F)F [Perfluoropinacol]; settings: in DMSO
Procedure: as §1

[6] = compound: O=C(O)C(F)(F)C(F)(F)C(F)(F)C(F)(F)C(F)(F)C(F)(F)C(F)(F)F [Ammonium perfluorooctanoate]; settings: in DMSO
Procedure: as §1

[7] = compound: Cc1ccc(S(=O)(=O)OCC(F)(F)C(F)(F)C(F)(F)C(F)(F)C(F)(F)C(F)F)cc1 [1H,1H,7H-Perfluoroheptyl 4-methylbenzenesulfonate]; settings: in DMSO
Procedure: as §1

Row | Test System | level (log10) ([1]; 1100 nM) | level (log10) ([1]; 3300 nM) | level (log10) ([1]; 10000 nM) | level (log10) ([2]; 6700 nM) | level (log10) ([2]; 20000 nM) | level (log10) ([2]; 60000 nM) | level (log10) [3] | level (log10) ([4]; 6700 nM) | level (log10) ([4]; 20000 nM) | level (log10) ([4]; 60000 nM) | level (log10) ([5]; 6700 nM) | level (log10) ([5]; 20000 nM) | level (log10) ([6]; 6700 nM) | level (log10) ([6]; 20000 nM) | level (log10) ([6]; 60000 nM) | level (log10) ([7]; 6700 nM) | level (log10) ([7]; 20000 nM) | level (log10) ([7]; 60000 nM)
1 | lMphg:CD69 | -0.038 ± 0.017 | -0.103 ± 0.028 | -0.0685 ± 0.0078 | -0.003 ± 0.0099 | -0.019 ± 0.033 | -0.348 | -0.01 | -0.016 ± 0.033 | -0.0355 ± 0.0021 | -0.079 ± 0.028 | -0.124 ± 0.026 | -0.256 ± 0.058 | -0.0285 ± 0.018 | -0.0185 ± 0.028 | -0.0715 ± 0.0064 | -0.007 ± 0.016 | -0.048 ± 0.027 | -0.039 ± 0.062
2 | CASM3C:CD106/VCAM-1 | -0.004 ± 0.024 | 0 ± 0.023 | -0.0105 ± 0.019 | 0 ± 0.02 | -0.0065 ± 0.025 | -0.151 | -0.041 | -0.027 ± 0.014 | -0.038 ± 0.031 | -0.042 ± 0.083 | -0.028 ± 0.0042 | -0.0385 ± 0.015 | 0.0115 ± 0.015 | -0.0085 ± 0.013 | -0.021 ± 0.025 | 0.001 ± 0.0028 | -0.011 ± 0.0014 | 0.0135 ± 0.005
3 | lMphg:CD40 | 0.0005 ± 0.036 | 0.005 ± 0.042 | -0.357 ± 0.028 | -0.0285 ± 0.0064 | -0.0695 ± 0.032 | -0.536 | -0.029 | -0.0015 ± 0.00071 | 0.0085 ± 0.04 | -0.007 ± 0.017 | -0.0265 ± 0.019 | -0.202 ± 0.03 | 0.0115 ± 0.053 | -0.0145 ± 0.0092 | -0.0585 ± 0.023 | -0.009 ± 0.016 | -0.0175 ± 0.0092 | -0.0135 ± 0.005
4 | CASM3C:HLA-DR | 0.0075 ± 0.016 | 0.0015 ± 0.00071 | 0.0095 ± 0.0035 | -0.0185 ± 0.0078 | -0.0275 ± 0.0064 | -0.065 | -0.006 | 0.0015 ± 0.0064 | -0.0015 ± 0.0064 | 0.0125 ± 0.005 | -0.0885 ± 0.042 | -0.207 | 0.0085 ± 0.012 | -0.0055 ± 0.0021 | 0.0015 ± 0.023 | -0.009 ± 0.0028 | -0.021 ± 0.0014 | -0.002 ± 0.0071
5 | KF3CT:SRB | -0.01 ± 0.0057 | -0.0285 ± 0.005 | -0.014 ± 0.0057 | -0.0155 ± 0.015 | -0.022 ± 0.011 | -0.25 | -0.288 | -0.001 | -0.0045 ± 0.0021 | -0.0025 ± 0.0092 | -0.004 ± 0.0042 | -0.014 ± 0.02 | -0.0125 ± 0.0035 | -0.0115 ± 0.0021 | -0.0195 ± 0.0021 | -0.0215 ± 0.013 | -0.032 ± 0.011 | -0.0335 ± 0.0078
6 | HDF3CGF:CD106/VCAM-1 | -0.075 ± 0.011 | -0.144 ± 0.013 | -0.069 ± 0.075 | -0.038 ± 0.016 | -0.0995 ± 0.073 | -0.322 | -0.335 | -0.022 ± 0.0099 | -0.05 ± 0.034 | -0.114 ± 0.037 | -0.089 ± 0.037 | -0.228 ± 0.0014 | -0.0315 ± 0.011 | -0.0065 ± 0.023 | -0.037 ± 0.0071 | -0.061 ± 0.013 | -0.046 ± 0.016 | -0.0335 ± 0.0035
7 | HDF3CGF:CXCL10/IP-10 | -0.0435 ± 0.015 | -0.0725 ± 0.0064 | -0.039 ± 0.02 | -0.0045 ± 0.028 | -0.0355 ± 0.0035 | -0.578 | -0.315 | -0.024 ± 0.0014 | -0.058 | -0.099 ± 0.0042 | -0.0535 ± 0.023 | -0.215 ± 0.012 | -0.015 ± 0.0042 | -0.023 ± 0.016 | -0.0495 ± 0.04 | -0.008 ± 0.025 | 0.0085 ± 0.013 | 0.006 ± 0.055
8 | CASM3C:CXCL8/IL-8 | -0.0025 ± 0.0035 | -0.006 | -0.007 ± 0.064 | -0.0275 ± 0.028 | -0.048 ± 0.0099 | -0.011 | -0.02 | 0.0335 ± 0.0064 | 0.031 ± 0.048 | 0.024 ± 0.042 | 0.004 ± 0.011 | 0.029 | 0.005 ± 0.0099 | 0.0085 ± 0.013 | 0.049 ± 0.033 | -0.0095 ± 0.015 | -0.0055 ± 0.013 | -0.002 ± 0.0099
9 | HDF3CGF:CXCL8/IL-8 | -0.002 ± 0.0057 | -0.007 | -0.001 | 0.004 ± 0.013 | -0.0055 ± 0.021 | -0.081 | -0.276 | 0.003 ± 0.0071 | 0.001 ± 0.0071 | 0.0125 ± 0.0064 | 0.025 ± 0.0071 | 0.02 ± 0.0028 | -0.0025 ± 0.005 | 0.002 ± 0.0042 | 0.003 | -0.0045 ± 0.011 | 0.0065 ± 0.0035 | 0.0095 ± 0.0021
10 | MyoF:Collagen IV | -0.0365 ± 0.05 | -0.0255 ± 0.028 | -0.01 ± 0.028 | -0.0265 ± 0.0035 | -0.013 ± 0.0071 | 0.156 | 0.063 | -0.0175 ± 0.044 | -0.014 ± 0.038 | 0.0205 ± 0.056 | 0.0385 ± 0.005 | 0.165 ± 0.0028 | 0.06 ± 0.0099 | 0.0745 ± 0.0035 | 0.225 ± 0.05 | 0.0145 ± 0.022 | 0.0265 ± 0.046 | 0.0665 ± 0.077
11 | BE3C:Keratin 8/18 | 0.0065 ± 0.04 | -0.016 ± 0.035 | 0.018 ± 0.025 | -0.034 ± 0.0085 | -0.027 ± 0.0085 | -0.016 | -0.018 | -0.0055 ± 0.005 | -0.0075 ± 0.015 | -0.009 ± 0.0085 | -0.0145 ± 0.00071 | -0.019 ± 0.0028 | -0.0195 ± 0.012 | -0.0215 ± 0.012 | -0.0225 ± 0.0035 | -0.006 ± 0.0085 | -0.006 ± 0.048 | -0.0065 ± 0.013
12 | MyoF:SRB | 0 ± 0.0042 | -0.0015 ± 0.012 | 0.0015 ± 0.016 | -0.012 | -0.019 ± 0.017 | -0.098 | -0.209 | 0.0005 ± 0.011 | -0.009 ± 0.014 | -0.0255 ± 0.021 | -0.012 | -0.0445 ± 0.0021 | 0.0005 ± 0.011 | 0.01 ± 0.011 | -0.048 ± 0.014 | -0.004 ± 0.018 | -0.021 ± 0.0085 | -0.024 ± 0.0014
13 | HDF3CGF:PAI-I | 0.037 ± 0.0014 | 0.0515 ± 0.012 | 0.029 ± 0.075 | -0.0005 ± 0.0035 | 0.007 ± 0.0014 | -0.564 | -0.662 | -0.0125 ± 0.0092 | -0.02 ± 0.024 | -0.021 ± 0.0014 | -0.0325 ± 0.012 | -0.117 ± 0.0021 | 0.0885 ± 0.03 | 0.0995 ± 0.044 | 0.017 ± 0.044 | -0.004 ± 0.0042 | -0.009 ± 0.011 | 0.0065 ± 0.036
14 | CASM3C:CXCL9/MIG | 0.0005 ± 0.0035 | -0.002 ± 0.0028 | 0.014 ± 0.021 | -0.001 | -0.0035 ± 0.005 | -0.039 | -0.018 | -0.0035 ± 0.026 | -0.014 ± 0.047 | -0.072 ± 0.09 | -0.013 ± 0.02 | -0.0335 ± 0.011 | -0.001 ± 0.016 | 0.017 ± 0.017 | 0.0225 ± 0.028 | -0.0085 ± 0.011 | -0.0195 ± 0.013 | 0.0135 ± 0.0021
15 | BE3C:tPA | -0.0125 ± 0.011 | -0.033 ± 0.011 | -0.008 ± 0.016 | 0.073 ± 0.021 | 0.097 ± 0.011 | -0.108 | -0.032 | 0.0045 ± 0.021 | 0.028 ± 0.016 | 0.085 ± 0.031 | -0.0455 ± 0.0078 | -0.224 ± 0.012 | -0.029 ± 0.045 | -0.015 ± 0.02 | -0.07 ± 0.0085 | -0.002 ± 0.044 | -0.032 ± 0.054 | -0.013 ± 0.034
